Measured values from the NIST ThermoML archive (doi:10.1016/j.jct.2016.10.021).
± gives the expanded uncertainty stated by the source.

Tests used:
[1] = for surface tension liquid-gas: Pendant drop shape; for viscosity / mass density: 101.33 kPa, Liquid; for viscosity: Concentric cylinders viscometry; for mass density: Vibrating tube method
[2] = wn = mass fraction of the nth substance listed; conditions: 303.15 K; for surface tension liquid-gas: Pendant drop shape; for viscosity / mass density: 100 kPa, Liquid; for viscosity: Concentric cylinders viscometry; for mass density: Vibrating tube method

C1CCC2=[NH+]CCCN2CC1.O=S(=O)([O-])C(F)(F)F
[1]
Conditions	mass density [kg/m3]	surface tension liquid-gas [mN/m]	viscosity [mPa·s]
293.15 K	1361 ± 4.3	30.39 ± 0.73	1113.1 ± 49
303.15 K	1352.7 ± 4.3	29.8 ± 0.73	524.23 ± 19
313.15 K	1344.5 ± 4.3	29.27 ± 0.72	276 ± 8.5
323.15 K	1336.7 ± 4.3	28.83 ± 0.72	158.89 ± 4.2
333.15 K	1329 ± 4.3	28.31 ± 0.72	98.25 ± 2.4
343.15 K	1321.2 ± 4.2	27.71 ± 0.71	64.4 ± 1.5
353.15 K	1313.5 ± 4.2	27.15 ± 0.71	44.29 ± 1
363.15 K	1305.9 ± 4.2	–	31.75 ± 0.72

C1CCC2=[NH+]CCCN2CC1.O=S(=O)([O-])C(F)(F)F + O
[2]
Conditions	mass density [kg/m3]	surface tension liquid-gas [mN/m]	viscosity [mPa·s]
w2 = 0.001106	1352.7 ± 4.3	29.8 ± 0.7	524.23 ± 19
w2 = 0.002067	1352.2 ± 4.3	29.74 ± 0.73	524.18 ± 19
w2 = 0.003286	1351.6 ± 4.3	29.66 ± 0.73	524.11 ± 19
w2 = 0.004194	1351.1 ± 4.3	29.6 ± 0.7	524.06 ± 19
w2 = 0.005671	1350.5 ± 4.3	29.51 ± 0.72	523.99 ± 19

C1CCC2=NCCC[NH+]2CC1.CS(=O)(=O)[O-] [1,8-diazabicyclo[5.4.0]undec-7-enium methanesulfonate]
[1]
Conditions	mass density [kg/m3]	surface tension liquid-gas [mN/m]	viscosity [mPa·s]
293.15 K	1226.6 ± 4.2	41.84 ± 0.82	3310.1 ± 190
303.15 K	1219.8 ± 4.2	41.35 ± 0.81	1177 ± 53
313.15 K	1212.9 ± 4.2	40.49 ± 0.81	497.53 ± 18
323.15 K	1206.1 ± 4.2	39.58 ± 0.8	241.49 ± 7.2
333.15 K	1199.5 ± 4.2	38.79 ± 0.79	131.6 ± 3.3
343.15 K	1193 ± 4	38.23 ± 0.79	78.46 ± 1.8
353.15 K	1186.5 ± 4.2	37.54 ± 0.78	50.26 ± 1.1
363.15 K	1180.2 ± 4.2	–	34.12 ± 0.77

C1CCC2=NCCC[NH+]2CC1.CS(=O)(=O)[O-] [1,8-diazabicyclo[5.4.0]undec-7-enium methanesulfonate] + O
[2]
Conditions	mass density [kg/m3]	surface tension liquid-gas [mN/m]	viscosity [mPa·s]
w2 = 0.001054	1219.8 ± 4.2	41.35 ± 0.81	1177 ± 54
w2 = 0.001987	1219.37 ± 4.2	41.43 ± 0.81	1176.8 ± 54
w2 = 0.003524	1218.75 ± 4.2	41.56 ± 0.82	1176.5 ± 54
w2 = 0.004663	1218.3 ± 4.2	41.69 ± 0.82	1176.3 ± 54
w2 = 0.005967	1217.81 ± 4.2	41.78 ± 0.82	1176.1 ± 54

C1CCC2=NCCC[NH+]2CC1.O=C([O-])C(F)(F)F [1,8-diazabicyclo[5.4.0]undec-7-enium trifluoroacetate]
[1]
Conditions	mass density [kg/m3]	surface tension liquid-gas [mN/m]	viscosity [mPa·s]
293.15 K	1264.6 ± 4.2	32.47 ± 0.75	1193.2 ± 54
303.15 K	1256.6 ± 4.2	31.98 ± 0.74	493.76 ± 18
313.15 K	1248.9 ± 4.2	31.52 ± 0.74	236.97 ± 7
323.15 K	1241.4 ± 4.2	31.05 ± 0.74	127.92 ± 3.2
333.15 K	1234 ± 4.2	30.65 ± 0.73	75.72 ± 1.7
343.15 K	1226.6 ± 4.2	30.15 ± 0.73	48.46 ± 1.1
353.15 K	1219.2 ± 4.2	29.74 ± 0.73	32.94 ± 0.74
363.15 K	1211.9 ± 4.2	–	23.43 ± 0.53

C1CCC2=NCCC[NH+]2CC1.O=C([O-])C(F)(F)F [1,8-diazabicyclo[5.4.0]undec-7-enium trifluoroacetate] + O
[2]
Conditions	mass density [kg/m3]	surface tension liquid-gas [mN/m]	viscosity [mPa·s]
w2 = 0.001118	1256.6 ± 4.2	31.98 ± 0.74	493.76 ± 18
w2 = 0.002196	1256.2 ± 4.2	32.01 ± 0.74	493.59 ± 18
w2 = 0.003948	1255.7 ± 4.2	32.06 ± 0.74	493.33 ± 18
w2 = 0.005067	1255.2 ± 4.2	32.09 ± 0.74	493.17 ± 18
w2 = 0.006935	1254.6 ± 4.2	32.14 ± 0.74	492.85 ± 18

C1CCC2=[NH+]CCCN2CC1.CC(=O)[O-] [2,3,4,6,7,8,9,10-octahydropyrimido[1,2-a]azepinium acetate]
[1]
Conditions	mass density [kg/m3]	surface tension liquid-gas [mN/m]	viscosity [mPa·s]
293.15 K	1076 ± 4.1	36.88 ± 0.78	164.74 ± 4.4
303.15 K	1069.1 ± 4.1	35.94 ± 0.77	84.73 ± 2
313.15 K	1062.3 ± 4.1	34.6 ± 0.76	48.34 ± 1.1
323.15 K	1055.6 ± 4.1	33.47 ± 0.75	30.38 ± 0.69
333.15 K	1048.7 ± 4.1	32.38 ± 0.75	20.36 ± 0.46
343.15 K	1041.8 ± 4.1	31.46 ± 0.74	14.39 ± 0.33
353.15 K	1034.9 ± 4.1	30.63 ± 0.73	10.59 ± 0.24
363.15 K	1028 ± 4	–	8.052 ± 0.18

C1CCC2=[NH+]CCCN2CC1.CC(=O)[O-] [2,3,4,6,7,8,9,10-octahydropyrimido[1,2-a]azepinium acetate] + O
[2]
Conditions	mass density [kg/m3]	surface tension liquid-gas [mN/m]	viscosity [mPa·s]
w2 = 0.001127	1069.1 ± 4.5	35.94 ± 0.87	84.73 ± 2.2
w2 = 0.002156	1068.4 ± 4.5	35.99 ± 0.87	84.7 ± 2.2
w2 = 0.003932	1066.9 ± 4.5	36.09 ± 0.87	84.66 ± 2.2
w2 = 0.005106	1065.9 ± 4.5	36.15 ± 0.87	84.62 ± 2.2
w2 = 0.006373	1065 ± 4	36.23 ± 0.87	84.59 ± 2.2
